From PubChem BioAssay AID1919014 (Molecular Pharmacology Branch, DTP, NCI, 2023)

Test system: NCI-H1341 complex spheroids, percent test/control
Assay: Anticancer human tumor NCI-H1341 cell line growth inhibition [AhR];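 further: spheroids exposed to agents for seven days before readout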
Details: for IC50: curve of first compound; for viability, T/C: stronger effect = lower value; active means viability on the fitted dose curve at most 10% of control; inactive means the rest
Summary of the method: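 Agents were dosed in half-log steps down from roughly clinical Cmax, or from 10 microM where Cmax was unknown, alone and with AhR antagonists. Read-out: percent test/control growth of tumor spheroids containing HUVEC and MSC stromal cells.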

[1] = second compound 0.1 µM, first compound 0.0316 µM
[2] = second compound 0.1 µM, first compound 0.1 µM
[3] = second compound 0.1 µM, first compound 0.316 µM
[4] = second compound 0.1 µM, first compound 1 µM
[5] = second compound 0.1 µM, first compound 3.16 µM
[6] = second compound 0.1 µM, first compound 10 µM
[7] = second compound 0.316 µM, first compound 0.0316 µM
[8] = second compound 0.316 µM, first compound 0.1 µM
[9] = second compound 0.316 µM, first compound 0.316 µM
[10] = second compound 0.316 µM, first compound 1 µM
[11] = second compound 0.316 µM, first compound 3.16 µM
[12] = second compound 0.316 µM, first compound 10 µM
[13] = second compound 1 µM, first compound 0.0316 µM
[14] = second compound 1 µM, first compound 0.1 µM
[15] = second compound 1 µM, first compound 0.316 µM
[16] = second compound 1 µM, first compound 1 µM
[17] = second compound 1 µM, first compound 3.16 µM
[18] = second compound 1 µM, first compound 10 µM
[19] = second compound 3.16 µM, first compound 0.0316 µM
[20] = second compound 3.16 µM, first compound 0.1 µM
[21] = second compound 3.16 µM, first compound 0.316 µM
[22] = second compound 3.16 µM, first compound 1 µM
[23] = second compound 3.16 µM, first compound 3.16 µM
[24] = second compound 3.16 µM, first compound 10 µM
[25] = second compound 10 µM, first compound 0.0316 µM
[26] = second compound 10 µM, first compound 0.1 µM
[27] = second compound 10 µM, first compound 0.316 µM
[28] = second compound 10 µM, first compound 1 µM
[29] = second compound 10 µM, first compound 3.16 µM
[30] = second compound 10 µM, first compound 10 µM

CCc1c2c(nc3ccc(O)cc13)-c1cc3c(c(=O)n1C2)COC(=O)[C@]3(O)CC + Cc1cncc(-c2nc(NCCc3c[nH]c4ccccc34)c3ncn(C(C)C)c3n2)c1
inactive: viability, T/C (second compound 0.1 µM, first compound 0.000949 µM) 69.6% | viability, T/C (second compound 0.1 µM, first compound 0.003 µM) 65.8% | viability, T/C (second compound 0.1 µM, first compound 0.00949 µM) 41.9% | viability, T/C (second compound 0.1 µM, first compound 0.03 µM) 31.9% | viability, T/C (second compound 0.1 µM, first compound 0.0949 µM) 25.2% | viability, T/C (second compound 0.1 µM, first compound 0.3 µM) 11.9% | viability, T/C (second compound 0.316 µM, first compound 0.000949 µM) 63.2% | viability, T/C (second compound 0.316 µM, first compound 0.003 µM) 55.8% | viability, T/C (second compound 0.316 µM, first compound 0.00949 µM) 33.8% | viability, T/C (second compound 0.316 µM, first compound 0.03 µM) 31.8% | viability, T/C (second compound 0.316 µM, first compound 0.0949 µM) 22.9% | viability, T/C (second compound 0.316 µM, first compound 0.3 µM) 10% | viability, T/C (second compound 1 µM, first compound 0.000949 µM) 46.1% | viability, T/C (second compound 1 µM, first compound 0.003 µM) 45.6% | viability, T/C (second compound 1 µM, first compound 0.00949 µM) 36.4% | viability, T/C (second compound 1 µM, first compound 0.03 µM) 31.7% | viability, T/C (second compound 1 µM, first compound 0.0949 µM) 20.4% | viability, T/C (second compound 3.16 µM, first compound 0.000949 µM) 46% | viability, T/C (second compound 3.16 µM, first compound 0.003 µM) 38.2% | viability, T/C (second compound 3.16 µM, first compound 0.00949 µM) 34.6% | viability, T/C (second compound 3.16 µM, first compound 0.03 µM) 26.3% | viability, T/C (second compound 3.16 µM, first compound 0.0949 µM) 15.2% | viability, T/C (second compound 10 µM, first compound 0.000949 µM) 15.2% | viability, T/C (second compound 10 µM, first compound 0.003 µM) 13% | viability, T/C (second compound 10 µM, first compound 0.00949 µM) 14.9%
< 0.949 nM: IC50 (second compound 1 µM) | IC50 (second compound 3.16 µM) | IC50 (second compound 10 µM)
7.13 nM: IC50 (second compound 0.1 µM)
active: viability, T/C (second compound 1 µM, first compound 0.3 µM) 8.02% | viability, T/C (second compound 3.16 µM, first compound 0.3 µM) 5.83% | viability, T/C (second compound 10 µM, first compound 0.03 µM) 8.23% | viability, T/C (second compound 10 µM, first compound 0.0949 µM) 4.28% | viability, T/C (second compound 10 µM, first compound 0.3 µM) 1.78%
3.57 nM: IC50 (second compound 0.316 µM)

Nc1ccccc1NC(=O)c1ccc(CNC(=O)OCc2cccnc2)cc1 + Cc1cncc(-c2nc(NCCc3c[nH]c4ccccc34)c3ncn(C(C)C)c3n2)c1
< 31.6 nM: IC50 (second compound 10 µM)
active: viability, T/C [5] 5.05% | viability, T/C [6] 0.51% | viability, T/C [11] 5.82% | viability, T/C [12] 0.6% | viability, T/C [17] 5.68% | viability, T/C [18] 0.56% | viability, T/C [23] 8.4% | viability, T/C [24] 0.87% | viability, T/C [28] 9.63% | viability, T/C [29] 1.83% | viability, T/C [30] 0.47%
403 nM: IC50 (second compound 0.1 µM)
inactive: viability, T/C [1] 66.1% | viability, T/C [2] 76.2% | viability, T/C [3] 52.2% | viability, T/C [4] 29.1% | viability, T/C [7] 73.4% | viability, T/C [8] 65.8% | viability, T/C [9] 55.7% | viability, T/C [10] 26.1% | viability, T/C [13] 68.6% | viability, T/C [14] 84.9% | viability, T/C [15] 51.3% | viability, T/C [16] 19.8% | viability, T/C [19] 55.3% | viability, T/C [20] 52.2% | viability, T/C [21] 42.3% | viability, T/C [22] 21.7% | viability, T/C [25] 21.9% | viability, T/C [26] 22.6% | viability, T/C [27] 15.2%
127 nM: IC50 (second compound 3.16 µM)
382 nM: IC50 (second compound 0.316 µM)
369 nM: IC50 (second compound 1 µM)

Nc1ccn(C2OC(CO)C(O)C2(F)F)c(=O)n1 (stereo not given) + Cc1cncc(-c2nc(NCCc3c[nH]c4ccccc34)c3ncn(C(C)C)c3n2)c1
inactive: viability, T/C [1] 28.4% | viability, T/C [2] 28.2% | viability, T/C [3] 25.5% | viability, T/C [4] 25.2% | viability, T/C [5] 27.6% | viability, T/C [6] 20.8% | viability, T/C [7] 30.6% | viability, T/C [8] 28.5% | viability, T/C [9] 25.9% | viability, T/C [10] 25.6% | viability, T/C [11] 22.7% | viability, T/C [12] 21.5% | viability, T/C [13] 29.2% | viability, T/C [14] 31.7% | viability, T/C [15] 27.9% | viability, T/C [16] 26.4% | viability, T/C [17] 24.3% | viability, T/C [18] 20.9% | viability, T/C [19] 32.8% | viability, T/C [20] 27.1% | viability, T/C [21] 28.5% | viability, T/C [22] 27% | viability, T/C [23] 26.8% | viability, T/C [24] 21.6% | viability, T/C [25] 36.6% | viability, T/C [26] 23.7% | viability, T/C [27] 28.9% | viability, T/C [28] 27.3% | viability, T/C [29] 30.8% | viability, T/C [30] 23.1%
< 31.6 nM: IC50 (second compound 0.1 µM) | IC50 (second compound 0.316 µM) | IC50 (second compound 1 µM) | IC50 (second compound 3.16 µM) | IC50 (second compound 10 µM)

O=C(c1cc(Cc2n[nH]c(=O)c3ccccc23)ccc1F)N1CCN(C(=O)C2CC2)CC1 + Cc1cncc(-c2nc(NCCc3c[nH]c4ccccc34)c3ncn(C(C)C)c3n2)c1
inactive: viability, T/C [1] 87.6% | viability, T/C [2] 80.9% | viability, T/C [3] 82.1% | viability, T/C [4] 85.5% | viability, T/C [5] 76.7% | viability, T/C [6] 61.7% | viability, T/C [7] 72.7% | viability, T/C [8] 91.4% | viability, T/C [9] 64.4% | viability, T/C [10] 77.5% | viability, T/C [11] 74.1% | viability, T/C [12] 63% | viability, T/C [13] 88.3% | viability, T/C [14] 61.2% | viability, T/C [15] 70.8% | viability, T/C [16] 79.3% | viability, T/C [17] 71% | viability, T/C [18] 62.7% | viability, T/C [19] 57.5% | viability, T/C [20] 61.1% | viability, T/C [21] 60.6% | viability, T/C [22] 62% | viability, T/C [23] 68.1% | viability, T/C [24] 51.4% | viability, T/C [25] 19.4% | viability, T/C [26] 19.5% | viability, T/C [27] 19.6% | viability, T/C [28] 21.3% | viability, T/C [29] 21.2% | viability, T/C [30] 22.1%
> 10000 nM: IC50 (second compound 0.1 µM) | IC50 (second compound 0.316 µM) | IC50 (second compound 1 µM) | IC50 (second compound 3.16 µM)
< 31.6 nM: IC50 (second compound 10 µM)
